From ChEMBL document CHEMBL1156052, “Discovery of 1-[4-(3-chlorophenylamino)-1-methyl-1H-pyrrolo[3,2-c]pyridin-7-yl]-1-morpholin-4-ylmethanone (GSK554418A), a brain penetrant 5-azaindole CB2 agonist for the treatment of chronic pain” (J Med Chem, 2009)
The source made the active and inactive calls. No cut-off for these calls is given here.

Key:
[1] = target: Cytochrome P450 1A2 (Homo sapiens, UniProt P05177); assay: Inhibition of CYP1A2; assay type: ADME
[2] = target: Muscarinic acetylcholine receptor M3 (Homo sapiens) (UniProt P20309); assay: Binding affinity to human muscarinic M3 receptor at 1 uM
[3] = target: Adenosine receptor A2a (Homo sapiens) (UniProt P29274); assay: Binding affinity to human adenosine A2A receptor at 1 uM
[4] = target: Galanin receptor type 2 (Homo sapiens) (UniProt O43603); assay: Binding affinity to human GAL2 receptor at 1 uM
[5] = Binding affinity to adrenergic alpha1 receptor at 1 uM
[6] = Ratio of drug level in brain to blood in rat 130 mg/kg, po after 3 hrs; assay type: ADME, organism-based; parameters: dose 130 mg/kg, route oral
[7] = target: Cholecystokinin receptor type A (Homo sapiens) (UniProt P32238); assay: Binding affinity to human CCKA receptor at 1 uM
Sequence of Cholecystokinin receptor type A (Homo sapiens) (P32238 whole entry): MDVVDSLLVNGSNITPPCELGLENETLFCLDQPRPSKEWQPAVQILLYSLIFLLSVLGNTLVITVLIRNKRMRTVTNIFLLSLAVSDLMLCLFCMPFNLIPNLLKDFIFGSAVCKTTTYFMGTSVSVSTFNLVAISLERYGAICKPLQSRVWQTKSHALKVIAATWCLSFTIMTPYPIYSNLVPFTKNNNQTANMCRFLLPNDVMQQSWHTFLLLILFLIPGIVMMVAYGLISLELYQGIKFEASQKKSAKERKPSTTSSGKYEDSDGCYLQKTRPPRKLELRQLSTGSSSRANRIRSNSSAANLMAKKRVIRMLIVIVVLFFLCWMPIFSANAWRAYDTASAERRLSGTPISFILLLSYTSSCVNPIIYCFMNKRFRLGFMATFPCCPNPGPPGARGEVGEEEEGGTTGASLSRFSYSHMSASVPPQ

[8] = target: C-X-C chemokine receptor type 2 (Homo sapiens) (UniProt P25025); assay: Binding affinity to human CXCR2 receptor at 1 uM
Sequence of C-X-C chemokine receptor type 2 (Homo sapiens) (P25025 whole entry): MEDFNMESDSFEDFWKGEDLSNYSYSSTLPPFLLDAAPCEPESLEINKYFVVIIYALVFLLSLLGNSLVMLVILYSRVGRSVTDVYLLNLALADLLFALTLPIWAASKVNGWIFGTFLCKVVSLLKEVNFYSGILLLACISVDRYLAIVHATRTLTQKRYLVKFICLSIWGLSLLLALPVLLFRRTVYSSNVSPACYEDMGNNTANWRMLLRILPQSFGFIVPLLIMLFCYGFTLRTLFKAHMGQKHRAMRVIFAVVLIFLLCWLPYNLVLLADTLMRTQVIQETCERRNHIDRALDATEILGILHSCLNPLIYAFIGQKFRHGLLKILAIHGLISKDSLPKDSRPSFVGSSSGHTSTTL

[9] = target: Histamine H1 receptor (Homo sapiens) (UniProt P35367); assay: Binding affinity to human histamine H1 receptor at 1 uM
[10] = target: Muscarinic acetylcholine receptor M2 (Homo sapiens) (UniProt P08172); assay: Binding affinity to human muscarinic M2 receptor at 1 uM
[11] = test system: Rattus norvegicus; assay: Analgesic activity in rat joint model of chronic pain assessed as reversal of hypersensitivity at 10 mg/kg, po BID for 5 days; assay type: functional, organism-based; parameters: dose 10 mg/kg
[12] = target: D(1A) dopamine receptor (Homo sapiens) (UniProt P21728); assay: Binding affinity to human dopamine D1 receptor at 1 uM
[13] = target: T1, Cannabinoid receptor 2 (Homo sapiens, UniProt P34972); assay: Agonist activity at human recombinant cannabinoid CB2 receptor expressed in MMY23 Saccharomyces cerevisiae assessed as degradation of FDGlu to fluorescein after 24 hrs by spectrofluorimetry relative to HU210; assay type: functional
T1 sequence (P34972 whole entry): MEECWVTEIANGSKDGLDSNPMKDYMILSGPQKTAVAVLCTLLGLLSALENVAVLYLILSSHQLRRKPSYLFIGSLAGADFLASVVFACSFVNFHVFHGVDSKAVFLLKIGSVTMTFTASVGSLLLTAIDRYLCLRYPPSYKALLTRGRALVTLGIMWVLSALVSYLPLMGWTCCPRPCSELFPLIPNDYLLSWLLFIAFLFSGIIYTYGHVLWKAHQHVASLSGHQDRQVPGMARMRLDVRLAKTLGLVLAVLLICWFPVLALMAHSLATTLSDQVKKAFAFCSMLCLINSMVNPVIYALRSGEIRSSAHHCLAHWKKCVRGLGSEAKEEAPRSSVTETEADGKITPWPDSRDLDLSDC

[14] = Intrinsic clearance in human liver microsomes; assay type: ADME, Microsome
[15] = Efflux ratio of apparent permeability […] side of MDR1-expressing MDCK2 cells after 60 mins by liquid scintillation counting; assay type: ADME, cell-based, Canis lupus familiaris; conditions: dog, mdck-ii, 1 h
[16] = target: Kappa-type opioid receptor (Homo sapiens) (UniProt P41145); assay: Binding affinity to kappa opioid receptor at 1 uM
Sequence of Kappa-type opioid receptor (Homo sapiens) (P41145 whole entry): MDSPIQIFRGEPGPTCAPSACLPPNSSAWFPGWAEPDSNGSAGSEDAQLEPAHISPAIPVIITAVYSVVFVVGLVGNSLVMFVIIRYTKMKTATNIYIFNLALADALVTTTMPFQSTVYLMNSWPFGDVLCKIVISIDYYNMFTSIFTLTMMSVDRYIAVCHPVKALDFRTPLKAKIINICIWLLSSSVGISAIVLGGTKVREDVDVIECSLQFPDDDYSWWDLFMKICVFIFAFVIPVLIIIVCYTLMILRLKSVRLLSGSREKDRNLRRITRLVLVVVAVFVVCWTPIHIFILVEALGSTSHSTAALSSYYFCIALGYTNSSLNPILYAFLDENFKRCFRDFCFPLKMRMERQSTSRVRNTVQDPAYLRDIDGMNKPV

[17] = target: Muscarinic acetylcholine receptor M4 (Homo sapiens) (UniProt P08173); assay: Binding affinity to human muscarinic M4 receptor at 1 uM
[18] = Ratio of drug level in brain to blood in rat 130 mg/kg, po after 5 hrs; assay type: ADME, organism-based; parameters: dose 130 mg/kg, route oral
[19] = Binding affinity to GABA receptor at 1 uM
[20] = target: Endothelin-1 receptor (Homo sapiens) (UniProt P25101); assay: Binding affinity to human ETA receptor at 1 uM
[21] = Drug level in rat blood at 130 mg/kg, po after 1 hr; assay type: ADME, organism-based; parameters: dose 130 mg/kg, route oral; conditions: read-out: Drug uptake
[22] = target: B2 bradykinin receptor (Homo sapiens) (UniProt P30411); assay: Binding affinity to human bradykinin B2 receptor at 1 uM
[23] = target: 5-hydroxytryptamine receptor 5A (Homo sapiens) (UniProt P47898); assay: Binding affinity to 5HT5A receptor at 1 uM
[24] = target: Cytochrome P450 2C19 (Homo sapiens, UniProt P33261); assay: Inhibition of CYP2C19; assay type: ADME
Sequence of Cytochrome P450 2C19 (P33261 whole entry): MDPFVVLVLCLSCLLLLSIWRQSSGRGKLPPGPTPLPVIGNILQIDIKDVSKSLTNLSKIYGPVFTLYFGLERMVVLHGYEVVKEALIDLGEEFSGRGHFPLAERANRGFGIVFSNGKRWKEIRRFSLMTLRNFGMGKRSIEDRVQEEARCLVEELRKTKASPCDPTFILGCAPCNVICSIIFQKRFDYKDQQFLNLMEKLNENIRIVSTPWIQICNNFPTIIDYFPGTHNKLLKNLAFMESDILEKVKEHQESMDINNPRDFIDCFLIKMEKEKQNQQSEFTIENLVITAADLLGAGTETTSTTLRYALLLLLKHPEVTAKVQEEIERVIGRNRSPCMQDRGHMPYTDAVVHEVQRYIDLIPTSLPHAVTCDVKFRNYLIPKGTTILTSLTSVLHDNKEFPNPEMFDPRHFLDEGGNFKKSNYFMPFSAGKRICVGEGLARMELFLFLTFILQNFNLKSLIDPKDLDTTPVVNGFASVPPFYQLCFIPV

[25] = Ratio of drug level in brain to blood in Sprague-Dawley rat at 0.4 mg/kg/hr, iv up to 12 hrs; assay type: ADME, organism-based; parameters: route intravenous
[26] = target: Cytochrome P450 2C9 (Homo sapiens, UniProt P11712); assay: Inhibition of CYP2C9; assay type: ADME
Sequence of Cytochrome P450 2C9 (P11712 whole entry): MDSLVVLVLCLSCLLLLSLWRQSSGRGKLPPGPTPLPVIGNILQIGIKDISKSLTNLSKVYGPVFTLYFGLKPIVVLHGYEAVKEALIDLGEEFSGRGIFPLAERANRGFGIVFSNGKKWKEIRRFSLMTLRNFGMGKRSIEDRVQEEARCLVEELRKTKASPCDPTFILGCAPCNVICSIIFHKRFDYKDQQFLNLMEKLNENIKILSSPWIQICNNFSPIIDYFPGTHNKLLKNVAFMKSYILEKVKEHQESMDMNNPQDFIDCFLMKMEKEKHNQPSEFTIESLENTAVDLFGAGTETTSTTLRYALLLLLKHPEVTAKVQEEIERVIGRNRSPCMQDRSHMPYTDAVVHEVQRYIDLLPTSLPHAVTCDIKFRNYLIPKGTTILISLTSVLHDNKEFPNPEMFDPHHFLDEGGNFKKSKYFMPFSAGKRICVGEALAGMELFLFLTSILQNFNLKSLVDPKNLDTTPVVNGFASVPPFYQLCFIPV

[27] = target: Alpha-2A adrenergic receptor (Homo sapiens) (UniProt P08913); assay: Binding affinity to adrenergic alpha2 receptor at 1 uM
[28] = Binding affinity to central benzodiazepine receptor at 1 uM
[29] = target: 5-hydroxytryptamine receptor 1A (Homo sapiens) (UniProt P08908); assay: Binding affinity to 5HT1A receptor at 1 uM
[30] = target: Substance-K receptor (Homo sapiens) (UniProt P21452); assay: Binding affinity to human NK2 receptor at 1 uM
Sequence of Substance-K receptor (Homo sapiens) (P21452 whole entry): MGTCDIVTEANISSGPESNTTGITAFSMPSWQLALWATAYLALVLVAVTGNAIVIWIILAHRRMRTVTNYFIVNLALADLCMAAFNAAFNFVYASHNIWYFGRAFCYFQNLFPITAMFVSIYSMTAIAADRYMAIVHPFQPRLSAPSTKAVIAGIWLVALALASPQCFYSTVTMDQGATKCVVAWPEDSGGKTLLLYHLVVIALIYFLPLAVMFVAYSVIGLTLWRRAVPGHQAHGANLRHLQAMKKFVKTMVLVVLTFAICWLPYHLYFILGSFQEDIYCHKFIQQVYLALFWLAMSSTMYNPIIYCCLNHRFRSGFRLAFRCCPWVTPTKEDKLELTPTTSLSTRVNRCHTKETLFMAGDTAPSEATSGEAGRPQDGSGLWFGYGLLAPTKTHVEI

[31] = target: Melanocortin receptor 4 (Homo sapiens) (UniProt P32245); assay: Binding affinity to human MC4 receptor at 1 uM
Sequence of Melanocortin receptor 4 (Homo sapiens) (P32245 whole entry): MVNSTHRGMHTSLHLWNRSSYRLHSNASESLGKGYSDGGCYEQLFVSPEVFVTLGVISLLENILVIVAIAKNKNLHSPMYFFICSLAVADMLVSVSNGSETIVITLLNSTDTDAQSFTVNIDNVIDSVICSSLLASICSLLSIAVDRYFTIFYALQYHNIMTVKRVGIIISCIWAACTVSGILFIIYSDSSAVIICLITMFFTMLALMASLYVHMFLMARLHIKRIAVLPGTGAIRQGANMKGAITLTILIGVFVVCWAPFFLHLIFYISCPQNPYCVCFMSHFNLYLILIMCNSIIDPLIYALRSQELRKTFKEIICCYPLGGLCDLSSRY

[32] = target: Adenosine receptor A1 (Homo sapiens) (UniProt P30542); assay: Binding affinity to human adenosine A1 receptor at 1 uM
Sequence of Adenosine receptor A1 (Homo sapiens) (P30542 whole entry): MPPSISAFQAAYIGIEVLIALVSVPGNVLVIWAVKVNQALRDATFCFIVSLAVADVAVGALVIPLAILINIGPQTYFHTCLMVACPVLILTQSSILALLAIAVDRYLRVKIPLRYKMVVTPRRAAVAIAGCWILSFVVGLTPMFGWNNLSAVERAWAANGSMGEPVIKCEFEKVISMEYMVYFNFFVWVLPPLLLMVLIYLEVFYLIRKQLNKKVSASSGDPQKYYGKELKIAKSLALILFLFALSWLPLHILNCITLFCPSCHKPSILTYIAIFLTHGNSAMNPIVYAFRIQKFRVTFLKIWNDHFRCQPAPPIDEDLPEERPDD

[33] = Dissociation constant, pKa of the compound; assay type: physicochemical
[34] = Intrinsic clearance in rat liver microsomes; assay type: ADME, Microsome
[35] = target: Histamine H2 receptor (Homo sapiens) (UniProt P25021); assay: Binding affinity to human histamine H2 receptor at 1 uM
Sequence of Histamine H2 receptor (Homo sapiens) (P25021 whole entry): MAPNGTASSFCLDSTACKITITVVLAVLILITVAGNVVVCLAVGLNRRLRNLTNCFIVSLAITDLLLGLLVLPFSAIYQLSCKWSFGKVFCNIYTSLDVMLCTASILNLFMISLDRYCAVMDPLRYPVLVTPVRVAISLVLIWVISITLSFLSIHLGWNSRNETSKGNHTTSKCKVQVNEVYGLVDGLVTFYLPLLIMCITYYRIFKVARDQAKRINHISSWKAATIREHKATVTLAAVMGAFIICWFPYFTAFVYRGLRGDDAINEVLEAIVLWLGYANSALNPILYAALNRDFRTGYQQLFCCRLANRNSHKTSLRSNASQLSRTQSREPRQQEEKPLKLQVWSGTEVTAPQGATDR

[36] = test system: Rattus norvegicus; assay: Antihyperalgesic activity in po dosed complete Freund's adjuvant rat model of inflammatory pain assessed as reduction of hypersensitivity administered as single dose; assay type: functional
[37] = target: Cytochrome P450 3A4 (Homo sapiens, UniProt P08684); assay: Inhibition of CYP3A4; assay type: ADME
Sequence of Cytochrome P450 3A4 (P08684 whole entry): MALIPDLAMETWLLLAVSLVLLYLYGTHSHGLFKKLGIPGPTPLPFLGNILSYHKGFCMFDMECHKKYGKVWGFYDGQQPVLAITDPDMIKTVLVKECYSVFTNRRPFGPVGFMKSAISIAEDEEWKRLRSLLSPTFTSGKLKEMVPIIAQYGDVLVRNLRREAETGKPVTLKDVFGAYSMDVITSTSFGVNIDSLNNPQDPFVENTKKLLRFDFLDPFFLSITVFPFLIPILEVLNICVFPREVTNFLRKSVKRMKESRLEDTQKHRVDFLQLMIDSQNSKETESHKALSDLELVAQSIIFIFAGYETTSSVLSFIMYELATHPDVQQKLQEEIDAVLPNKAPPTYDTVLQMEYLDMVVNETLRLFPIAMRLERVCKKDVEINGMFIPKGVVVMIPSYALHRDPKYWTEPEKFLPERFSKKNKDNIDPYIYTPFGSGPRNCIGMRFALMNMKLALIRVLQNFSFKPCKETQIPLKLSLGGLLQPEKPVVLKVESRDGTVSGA

[38] = target: Sodium-dependent noradrenaline transporter (Homo sapiens) (UniProt P23975); assay: Binding affinity to NET at 1 uM
[39] = Drug level in blood of complete Freund's adjuvant rat model of inflammatory pain at 0.1 mg/kg, po administered as single dose measured after 1 hr; assay type: ADME, organism-based; parameters: dose 0.1 mg/kg, route oral; conditions: read-out: Drug uptake
[40] = Drug level in Sprague-Dawley rat blood at 2 mg/kg, po after 0.8 hrs; assay type: ADME, organism-based; parameters: dose 2 mg/kg, route oral; conditions: read-out: Drug uptake
[41] = test system: Rattus norvegicus; assay: Induction of hypothermia in rat at 130 mg/kg, po after 1 to 5 hrs; assay type: organism-based; parameters: dose 130 mg/kg, route oral; conditions: in vivo
[42] = target: Cannabinoid receptor 1 (Homo sapiens, UniProt P21554); assay: Agonist activity at human recombinant cannabinoid CB1 receptor expressed in MMY23 Saccharomyces cerevisiae assessed as degradation of FDGlu to fluorescein after 24 hrs by spectrofluorimetry relative to HU210; assay type: functional
[43] = target: D(2) dopamine receptor (Homo sapiens) (UniProt P14416); assay: Binding affinity to human dopamine D2S receptor at 1 uM
[44] = Drug level in blood of rat joint model of chronic pain at 10 mg/kg, po BID for 5 days; assay type: ADME, organism-based; parameters: dose 10 mg/kg, route oral; conditions: read-out: Drug uptake
[45] = Oral bioavailability in Sprague-Dawley rat at 2 mg/kg after 0.8 hrs; assay type: ADME, organism-based; conditions: in vivo
[46] = test system: Rattus norvegicus; assay: Analgesic activity in po dosed rat joint model of chronic pain assessed as minimum effective dose administered BID for 5 days; assay type: functional; conditions: 120 h, read-out: MED
[47] = target: Adenosine receptor A3 (Homo sapiens) (UniProt P0DMS8); assay: Binding affinity to human adenosine A3 receptor at 1 uM
[48] = Drug level in rat blood at 130 mg/kg, po after 3 hrs; assay type: ADME, organism-based; parameters: dose 130 mg/kg, route oral; conditions: read-out: Drug uptake
[49] = target: T1, Cannabinoid receptor 2; assay: Agonist activity at human recombinant cannabinoid CB2 receptor expressed in CHOK1 cells assessed as forskolin-induced cAMP production at 20 uM by luciferase assay relative to HU210; assay type: functional, cell-based; conditions: CHO-K1
[50] = Ratio of drug level in brain to blood in rat 130 mg/kg, po after 1 hr; assay type: ADME, organism-based; parameters: dose 130 mg/kg, route oral

Sequence of Cytochrome P450 1A2 (P05177 whole entry): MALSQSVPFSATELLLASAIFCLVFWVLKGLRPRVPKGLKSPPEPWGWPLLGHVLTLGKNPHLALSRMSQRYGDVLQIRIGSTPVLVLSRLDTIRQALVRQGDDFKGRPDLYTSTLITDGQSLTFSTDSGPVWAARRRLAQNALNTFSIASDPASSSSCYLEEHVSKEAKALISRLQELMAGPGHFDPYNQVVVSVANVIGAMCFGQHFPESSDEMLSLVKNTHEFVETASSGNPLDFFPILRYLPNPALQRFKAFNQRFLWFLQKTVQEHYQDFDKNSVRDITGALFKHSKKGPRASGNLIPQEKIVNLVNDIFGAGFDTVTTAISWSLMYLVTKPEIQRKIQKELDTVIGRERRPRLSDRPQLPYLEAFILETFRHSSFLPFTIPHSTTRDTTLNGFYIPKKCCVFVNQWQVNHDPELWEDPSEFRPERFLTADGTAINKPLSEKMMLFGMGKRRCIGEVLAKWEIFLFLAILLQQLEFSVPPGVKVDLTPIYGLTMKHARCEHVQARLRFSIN

## Cn1ccc2c(Nc3cccc(Cl)c3)ncc(C(=O)N3CCOCC3)c21
[1]
  IC50: > 100 µM
[2]
  Activity: < 10%
[3]
  Activity: < 10%
[4]
  Activity: < 10%
[5]
  Activity: < 10%
[6]
  Kp at 3 h: 1
[7]
  Activity: < 10%
[8]
  Activity: < 10%
[9]
  Activity: < 10%
[10]
  Activity: < 10%
[11]
  Activity: Active
[12]
  Activity: < 10%
[13]
  Efficacy: 91%
[14]
  CLint scaled: < 0.6 mL/min/kg
[15]
  Ratio: 2.9
[16]
  Activity: 11%
[17]
  Activity: < 10%
[18]
  Kp at 5 h: 1
[19]
  Activity: < 10%
[20]
  Activity: < 10%
[21]
  concentration at 1 h: 8.6 µM
[22]
  Activity: < 10%
[23]
  Activity: 15%
[24]
  IC50: 41 µM
[25]
  Kp at 12 h: 1.04
[26]
  IC50: 42 µM
[27]
  Activity: 25%
[28]
  Activity: < 10%
[29]
  Activity: 24%
[30]
  Activity: < 10%
[31]
  Activity: < 10%
[32]
  Activity: < 10%
[33]
  pKa: 6.1
[34]
  CLint scaled: < 0.8 mL/min/kg
[35]
  Activity: < 10%
[36]
  ED50: 0.02 mg/kg
[37]
  IC50: 24 µM
[38]
  Activity: 15%
[39]
  concentration at 1 h: 0.097 µM
[40]
  concentration at 0.8 h: 1.1 µM
[41]
  Activity: Non-toxic
[42]
  Efficacy: 88%
[43]
  Activity: < 10%
[44]
  concentration at 120 h: 6.1 µM
[45]
  bioavailability: 82%
[46]
  minimal effective dose: 3 mg/kg
[47]
  Activity: < 10%
[48]
  concentration at 3 h: 10 µM
[49]
  Efficacy: 100%
[50]
  Kp at 1 h: 1
